≈ marks a conversion by molar mass, not a printed value. Residues, ends and D or L forms follow the SMILES beside them.
Assays:
[1] = system: S. aureus USA300; assay: Live cell penetration experiment (FITC, confocal); assay type: cell-based, Staphylococcus aureus; conditions: peptide and FITC 12.5 μM
Description: The entrance of a fluorescent dye into live bacterial cells was followed by confocal microscopy (Mishra et al. (2015) RSC Advances 5:59758-59769). In short, S. aureus USA300 was grown to the exponential phase from the overnight culture. The cells were then washed twice with fresh 1×PBS (pH 7.2) and the final cell density was adjusted to 1×10^8 CFU/mL. 1500 μL of the culture was added to the chambers of cuvettes (borosilicate cover glass systems) with equimolar concentrations of TetraF2W-RK and fluorescein isothiocyanate FITC (12.5 μM). The samples were examined with a confocal laser scanning microscope (Zeiss 710) with a series of live time pictures taken at every 5 seconds for 5 minutes and the data were processed using Zen 2010 software.

[2] = system: S. aureus USA300; assay type: cell-based, Staphylococcus aureus; conditions: 12.5 μM
Description: Two types of experiments were conducted to evaluate the anti-biofilm activity of these peptides against S. aureus USA300 grown under a static condition for 24 hours to form established biofilms in presence of tryptic soy broth (TSB). The experiment was set up using a flat bottom, 96-well, polystyrene microtiter plates (Corning, COSTAR). In short, S. aureus USA300 (10^5 CFU/mL) in fresh TSB media was made from an exponentially growing culture. 200 μL of this bacterial culture was added to each well of the microtiter plates. The plates are then incubated at 37° C. for 24 hours to allow biofilm formation. Media was then carefully removed followed by washing with sterile 1×PBS to remove any unattached bacteria. Solution containing μL of 10× peptide solution and 180 μL of fresh TSB were added. The plates were again incubated at 37° C. for another 24 hours. To measure the extent of biofilm disruption by the peptides as a function of biofilm reduction, crystal violet staining was performed. Media was pipetted out and the wells were carefully washed with 200 μL of PBS to remove the loosely attached cells. Subsequently, 200 μL of 99% methanol was added for fixation and the plates were allowed to sit for 15 minutes. The plates were finally aspirated and dried. Lastly, staining was done with 200 μL of 1% crystal violet in water for 5 minutes. Excess stain was gently rinsed off with tap water, and plates were air-dried. Further, stains were solubilized in 200 μL of 33% glacial acetic acid followed by colorimetric measurement at 600 nm on a Chromate® microtiter plate reader. The amounts of biofilm growth with and without compound treatments were calculated.
In addition, live cell contents of the peptide acted biofilms was estimated by XTT [2,3-bis(2-methyloxy-4-nitro-5-sulfophenyl)-2H-tertazolium-5-carboxanilide]assay by following the manufacturer's instructions with modifications. A 10% XTT solution in TSB media was added to each well and the plates were again incubated for 2 hours at 37° C. Absorbance at 450 nm (only media with XTT containing wells served as the blank) was obtained using Chromate® microtiter plate reader. Percentage of biofilm reduction for the peptide was plotted assuming 100% biofilm growth is achieved on the bacterial wells without peptide treatment.

[3] = system: human red blood cells; assay: Hemolytic ability (Example 3); assay type: cell-based; conditions: concentration that causes 50% hemolysis
Description: Hemolytic analysis of selected peptides was performed using an established protocol. Briefly, human blood cells (UNMC Blood Bank) were washed three times with phosphate buffer saline (PBS) and diluted to a 2% solution. After peptide treatment, incubation at 37° C. for one hour, and centrifugation at 13,000 rpm, aliquots of the supernatant were transferred to a fresh 96-well microplate. To assess peptide cytotoxicity, the amount of hemoglobin released was measured at 545 nm. The percent lysis was calculated by assuming 100% release when human blood cells were treated with 1% TRITON™ X-100, and 0% release when incubated with PBS buffer.

[4] = system: S. aureus USA300; assay: Growth inhibition in TSB media (FIG. 15A); assay type: cell-based, Staphylococcus aureus; conditions: 3.1 μM (printed 3.1 LM), 37° C.
Description: FIGS. 15A and 15B show the growth inhibition (FIG. 15A) and propidium iodide-based membrane permeation (FIG. 15B) of S. aureus USA300 in TSB media by 3.1 μM of TetraF2W-RR and its single arginine variants (Table 8) at 37° C. with shaking at 100 rpm.
Fluorescence spectroscopy was also used to follow bacterial killing. In brief, μL of serially diluted 10× peptide concentrations were done in 96-well coming COSTAR microtiter plates. Propidium iodide at a fixed concentration of 20 μM per well was added to each well which was finally incubated with 88 μL of S. aureus USA300 (with a final OD600 0.1) with continuous shaking at 100 rpm with meander corner well shaking, 37° C. in a FLUOstar® Omega (BMG LABTECH Inc., NC) microplate reader. The plates were read every 5 minutes for a total duration of 2 hours with excitation and emission wavelengths at 584 nm and 620 nm, respectively.

[5] = system: E. coli ATCC 25922; assay type: cell-based, Escherichia coli; conditions: ATCC 25922, 20 h
Description: (§1) The antimicrobial activity of peptides was evaluated using a standard broth microdilution protocol. In brief, exponential phase bacteria at 10^6 CFU were incubated with serially diluted peptides overnight for ˜20 hours at 37° C. The plates were read on a ChroMate® 4300 Microplate Reader at 630 nm (GMI, Ramsey, Minn.).

[6] = system: S. aureus USA300; assay type: cell-based, Staphylococcus aureus
Description: as §1

[7] = system: S. aureus USA300; assay: Confocal microscopy of preformed biofilms (Example 3); assay type: cell-based, Staphylococcus aureus
Description: S. aureus USA300 (10^5 CFU/mL) was made from exponentially growing bacteria. 1800 μL was added to the chamber of cuvettes (Borosilicate cover glass systems), and was incubated for 37° C., 24 hours for biofilm formation. Media was then pipetted out and chambers were washed with 1×PBS to remove non-adhered cells. To disrupt the preformed biofilms, 200 μL of 10× stocks of the peptide was added followed by 1800 μL of TSB. Control cuvettes contained water instead of peptide. The cuvettes were again incubated for another 24 hours at 37° C. Subsequently, the supernatant was pipetted out and the chambers were washed with 1×PBS. For evaluation under confocal microscope the biofilms were stained with 10 μL of LIVE/DEAD® kit (Invitrogen Molecular Probes) according to the manufacturer's instructions. The samples were examined with a confocal laser scanning microscope (Zeiss 710) and the data processed using Zen 2010 software.

[8] = system: human red blood cells (hRBC); assay type: cell-based; conditions: red cells of human
Description: Blood was obtained from the Blood Bank of the University of Nebraska Medical Center (UNMC) and washed three times (800 g, 10 minutes) with normal saline to remove plasma. A final solution containing 2% human red blood cells (hRBC) was then prepared in normal saline and used for the assay. 90 μl of this solution were added to 10 μl of serially diluted peptide solutions and incubated at 37° C. for 1 hour. It was then centrifuged at 15,700 g for 5 minutes on an Eppendorf® bench-top centrifuge 5415D. Aliquots of the supernatant (˜80 μl) were carefully transferred to a fresh 96-well microplate (Costar, Corning, N.Y.) and absorbance was read at 545 nm to detect the amount of hemoglobin released. Percent lysis was calculated based on the extent of hemoglobin released, where 100% release is assumed in the presence of 1% TRITON™ X-100 and 0% release is assumed in saline.

[9] = system: P. aeruginosa PAO1; assay type: cell-based, Pseudomonas aeruginosa; conditions: PAO1
Description: (§2) Bacterial strains used in this study included Enterococcus faecium ATCC51559, Staphylococcus aureus USA300 LAC, Klebsiella pneumoniae ATCC 13883, Acinetobacter baumannii B2367-12, Pseudomonas aeruginosa PAO1, Enterobacter cloacae B2366-12 and Escherichia coli ATCC 25922, wherein the first six constituting the ESKAPE pathogens. Tryptic soy broth (TSB) for bacterial growth was obtained from BD Bioscience (Sparks, Md.).
(§3) The antibacterial activity of peptides was evaluated using a standard broth microdilution protocol as described (Wang et al. (2012) Antimicrob. Agents Chemother., 56:845-856). In brief, 5 μl of each bacterium (stored at −80° C.) were inoculated into TSB medium (2 ml) and grown overnight. A second inoculation was made in the morning by delivering 10 μl of the overnight culture to a fresh TSB medium. After 2-3 hours growth at 37° C., 225 rpm, logarithmic phase bacterial cultures (OD600≈0.5) were diluted and partitioned into a 96-well polystyrene microplate with ˜10^5 colony forming units (CFU) per well (90 μl aliquots). After treatment with 10 μl of peptide solutions at various concentrations, microplates were incubated at 37° C. overnight and read on a ChroMate® 4300 Microplate Reader at 630 nm (GMI, Ramsey, Minn.). The medium was used as a blank where no bacteria should grow.

[10] = system: E. coli ATCC 25922; assay type: cell-based, Escherichia coli; conditions: ATCC 25922
Description: as §2, §3

[11] = system: A. baumannii B2367-12; assay type: cell-based, Acinetobacter baumannii; conditions: B2367-12
Description: as §2, §3

[12] = system: S. aureus USA300 LAC; assay type: cell-based, Staphylococcus aureus; conditions: USA300
Description: as §2, §3

[13] = system: E. cloacae B2366-12; assay type: cell-based, Enterobacter cloacae; conditions: B2366-12
Description: as §2, §3

[14] = system: E. faecium ATCC51559; assay type: cell-based, Enterococcus faecium; conditions: ATCC51559
Description: as §2, §3

[15] = system: ESKAPE pathogens; assay type: cell-based
Description: as §2, §3

[16] = Cytotoxicity of soluble peptide (MTS); assay type: cell-based; conditions: human, HaCaT cells; free peptide; read-out: 50% lethal concentration (LC50) to HaCaT cells
Description: In vitro spontaneously transformed keratinocytes from histologically normal human skin (HaCaT cells) from Fisher (Hampton, N.H.) (Cat # T0020001) were maintained in DMEM high glucose medium with 4 mM L-glutamine (HyClone, South Logan, Utah) and 100 U ml^−1 penicillin, 100 μg ml^−1 streptomycin (pen/strep, p/s) (Life Technologies, Carlsbad, Calif.), and 10% (v v^−1) inactivated fetal bovine serum (FBS, NyClone), DMEM with 10% FBS, p/s. Cells were grown in 5% CO2 at 37° C. and were detached from culturing dish at 100% confluency by treating with 0.025% trypsin-EDTA (NyClone), seeded (100,000 cells well^−1) in 24-well plates (Corning Life Science, Salt Lake City, Utah) and grown overnight in 200 μl of DMEM medium to reach a 70% confluency. The peptide-coated surfaces (1.0×1.0 cm) were placed in a 24-well plate DMEM with or without 10% FBS, p/s for 1 hour. Samples were taken out and 60 μl of CellTiter96® MTS were added. Plates were further incubated for another 2 hours at 37° C. Subsequently, 100 μl of the solution were placed in a clean 96-well plate to measure the absorbance at 492 nm on a ChroMate® reader (GMI). For comparison, the toxicity of the soluble peptides was also measured and they were treated in the same way as described above. The culture medium and a 0.2% SDS solution were used as negative and positive controls, respectively.

SMILES	time to entry of FITC into bacteria after peptide treatment [1]	killing in preformed biofilms (XTT) [2]	HL50 [3]	growth inhibition of S. aureus USA300 [4]	E. coli (MIC) [5]	cell selectivity index (ratio of HL50 and MIC) ([6]; HL50 human red blood cells / MIC S. aureus USA300)	S. aureus (MIC) ([6]; USA300, 20 h)	killing in 24 hour preformed biofilms (LIVE/DEAD confocal) [7]	50% hemolytic concentration (HL50) [8]	MIC PA [9]	MIC EC [10]	MIC AB [11]	MIC SA [12]	MIC ECl [13]	MIC EF [14]	MIC range against almost all / most of the tested strains [15]	CC50 at 1 hour [16]
CC(C)C[C@H](NC(=O)[C@H](Cc1c[nH]c2ccccc12)NC(=O)[C@H](Cc1c[nH]c2ccccc12)NC(=O)[C@@H](N)Cc1c[nH]c2ccccc12)C(=O)N[C@@H](CCCNC(=N)N)C(=O)N[C@@H](CCCNC(=N)N)C(=O)N[C@@H](CCCNC(=N)N)C(=O)N[C@@H](Cc1c[nH]c2ccccc12)C(N)=O [Peptide I7R, WWWLRRRW] (H-WWWLRRRW-NH2; N-terminus assumed)	28 s	80%	150 µM	almost equally effective to the WT	6.2 µM	48	3.1 µM	the majority of cells are red									
CC[C@H](C)[C@H](NC(=O)[C@H](CCCNC(=N)N)NC(=O)[C@H](CCC(N)=O)NC(=O)[C@@H](NC(=O)[C@@H](NC(=O)[C@H](CCCNC(=N)N)NC(=O)[C@H](CCCCN)NC(=O)[C@@H](N)Cc1ccccc1)[C@@H](C)CC)C(C)C)C(=O)N[C@@H](CCCCN)C(=O)N[C@@H](CC(=O)O)C(=O)N[C@@H](Cc1ccccc1)C(=O)N[C@@H](CC(C)C)C(=O)N[C@@H](CCCNC(=N)N)C(=O)N[C@@H](CC(N)=O)C(=O)N[C@@H](CC(C)C)C(=O)N[C@H](C(=O)N[C@@H](CS)C(=O)O)C(C)C [FK-16Cys] (H-FKRIVQRIKDFLRNLVC-OH; N-terminus and C-terminus assumed)									~35 µM	>50 µM	37.5 ± 17.6 µM (≈ 80.6 µg/mL)	12.5 ± 0 µM (≈ 26.9 µg/mL)	18 ± 7.2 µM (≈ 38.7 µg/mL)	50 ± 0 µM (≈ 107 µg/mL)	12.5 ± 0 µM (≈ 26.9 µg/mL)	12.5 to 50 µM	> 100 µM
